In brackets after ≈: the same amount, converted by molar mass. Read-outs that look alike come from different tables or passages of the source. Where a SMILES comes first, the peptide text is derived from it.
What was measured:
[1] = tested on: Staphylococcus aureus (NCTC 10788); assay type: cell-based; conditions: for MBC: NCTC 10788, 18 h; for MIC: NCTC 10788, 24 h
Procedure: (§1) The minimal inhibitory concentrations (MICs) and minimum bactericidal concentrations (MBCs) were evaluated to determine the antimicrobial activity of synthetic peptides. The microorganisms employed in the study are two kinds of Gram-negative bacteria, Escherichia coli (NCTC 10418) and Pseudomonas aeruginosa (ATCC 27853), three kinds of Gram-positive bacteria, Staphylococcus aureus (NCTC 10788), Methicillin-resistant Staphylococcus aureus (MRSA, ATCC 12493) and Enterococcus faecalis (NCTC 12697) and a yeast, Candida albicans (NCPF 1467), as indicated previously. […] The sterilised broth medium was used as the positive control and the microorganism cultured in the medium only was treated as the negative control. […] The MBC results were defined as the lowest bactericidal concentrations of peptide. The antimicrobial activity of peptides was tested by monitoring the absorbance at 550 nm using an ELISA plate reader (Biolise BioTek EL808, Winooski, VT, USA).

[2] = tested on: Pseudomonas aeruginosa (ATCC 27853); assay type: cell-based; conditions: for MBC: ATCC 27853, 18 h; for MIC: ATCC 27853, 24 h
Procedure: as §1

[3] = tested on: Escherichia coli (NCTC 10418); assay type: cell-based; conditions: for MBC: NCTC 10418, 18 h; for MIC: NCTC 10418, 24 h
Procedure: as §1

[4] = tested on: Enterococcus faecalis (NCTC 12697); assay type: cell-based; conditions: for MBC: NCTC 12697, 18 h; for MIC: NCTC 12697, 24 h
Procedure: as §1

[5] = tested on: Methicillin-resistant Staphylococcus aureus (MRSA, ATCC 12493); assay type: cell-based; conditions: for MBC: ATCC 12493, 18 h; for MIC: ATCC 12493, 24 h
Procedure: as §1

[6] = tested on: Candida albicans (NCPF 1467); assay type: cell-based; conditions: for MBC: NCPF 1467, 18 h; for MIC: NCPF 1467, 24 h
Procedure: as §1

[7] = tested on: S. aureus (NCTC 10788) biofilm; assay type: cell-based, Staphylococcus aureus; conditions: for MBIC50 / MBIC90: NCTC 10788, 24 h
Procedure: (§2) The anti-biofilm effects of all synthetic peptides were evaluated, which was described in our previous study. The organisms, including S. aureus (NCTC 10788), E. coli (NCTC 10418), MRSA (ATCC 12493), E. faecalis (NCTC 12697) and P. aeruginosa (ATCC 27853), were investigated in this study. Gram-positive bacteria were cultured in the TSB broth and Gram-negative bacteria were cultured in the LB broth. The anti-biofilm effects were determined based on the MBIC and MBEC of all the peptides. For the determination of MBIC, 5 × 10^5 CFU/mL bacterial cultures were incubated with the peptides concentrations (ranging from 1 µM to 512 µM) for 24 h. The sterilised medium and bacterial suspension without any treatment were used as the negative controls and positive controls, respectively. After incubation, wells were rinsed, fixed, stained, washed and dissolved with phosphate buffer saline (PBS), methanol (90%, v/v), crystal violet (0.1%, w/v), sterile deionised water and acetic acid (30%, v/v), respectively. The absorbance of dissolved stain was measured at a 595 nm using a Synergy HT plate reader (Biotech, Minneapolis, MN, USA).
(§3) For the MBEC assay, the peptide concentrations were prepared as above. The bacteria were cultured in the 96 well plate for 24–48 h, which allowed the formation of mature biofilm in the plate. Then, the bacterial culture was removed from the plate. The biofilm was further washed to remove the planktonic bacteria using PBS. Then, the fresh broth that contained different peptide concentrations was added in the plate for incubation of 24 h at 37 °C. After incubation, the plate was stained by crystal violet as mentioned above. The definition of MBIC can be given when compared to the negative control group (≥90%, MBIC90; ≥50%, MBIC50). The definition of the MBEC can be given when compared to the negative control group (≥90%, MBEC90; ≥50%, MBEC50).

[8] = tested on: MRSA (ATCC 12493) biofilm; assay type: cell-based, Staphylococcus aureus; conditions: for MBIC50 / MBIC90: ATCC 12493, 24 h
Procedure: as §2, §3

[9] = tested on: P. aeruginosa; assay type: cell-based, Pseudomonas aeruginosa; conditions: 24 h
Procedure: The minimal inhibitory concentrations (MICs) and minimum bactericidal concentrations (MBCs) were evaluated to determine the antimicrobial activity of synthetic peptides. The microorganisms employed in the study are two kinds of Gram-negative bacteria, Escherichia coli (NCTC 10418) and Pseudomonas aeruginosa (ATCC 27853), three kinds of Gram-positive bacteria, Staphylococcus aureus (NCTC 10788), Methicillin-resistant Staphylococcus aureus (MRSA, ATCC 12493) and Enterococcus faecalis (NCTC 12697) and a yeast, Candida albicans (NCPF 1467), as indicated previously. For antimicrobial assays, 5 × 10^5 CFU/mL of bacterial suspensions were incubated with the concentrations of the peptides (ranging from 1 µM to 512 µM) for 24 h at 37 °C. The sterilised broth medium was used as the positive control and the microorganism cultured in the medium only was treated as the negative control. […] The MBC results were defined as the lowest bactericidal concentrations of peptide. The antimicrobial activity of peptides was tested by monitoring the absorbance at 550 nm using an ELISA plate reader (Biolise BioTek EL808, Winooski, VT, USA).
The activity of peptides in the different environmental conditions including different concentrations of NaCl (50, 100 and 150 mM) and MgCl2 (0.5, 1 and 2 mM), pH (6, 7 and 8), temperature (50 °C, 75 °C and 100 °C) and 10% fetal bovine serum (FBS) solution, was evaluated using the broth microdilution assay as described in the antimicrobial activity assay. For the stability test of peptides in the presence of salt, pH and serum, these conditions were adjusted in the fresh medium that was further used to dilute the bacteria suspension. The peptides were also dissolved in such broth and mixed with the bacteria suspension in the 96 well plate. For the thermal stability test, the peptides were dissolved in the water and incubated at different temperature for 15 min before dosing in the plate. The sterilised broth with corresponding conditions was used as the positive controls, and the bacteria suspension without any treatment was used as the negative controls.

[10] = tested on: horse red blood cells; assay: Haemolysis assay and therapeutic index; conditions: 2% horse red blood cells in PBS, 2 h, 37 °C, absorbance 570 nm; best-fitted curve

For `CC(C)C[C@H](NC(=O)[C@H](C)NC(=O)[C@H](Cc1c[nH]c2ccccc12)NC(=O)[C@H](CCCCN)NC(=O)[C@H](CC(C)C)NC(=O)[C@@H](N)Cc1ccccc1)C(=O)N[C@@H](CCCCN)C(=O)N[C@H](C(=O)N[C@@H](C)C(=O)N[C@@H](C)C(=O)N[C@@H](CCCCN)C(N)=O)C(C)C` [OSd] (H-FLKWALKVAAK-NH2), the MBC [1] was 32 µM (≈ 40.8 µg/mL), the MIC [1] was 16 µM (≈ 20.4 µg/mL) and the MBC [2] was 64 µM (≈ 81.5 µg/mL). It also gave an MIC [2] of 64 µM (≈ 81.5 µg/mL), an MBC [3] of 32 µM (≈ 40.8 µg/mL) and an MIC [3] of 32 µM (≈ 40.8 µg/mL). It also gave an MBC [4] of 64 µM (≈ 81.5 µg/mL), an MIC [4] of 32 µM (≈ 40.8 µg/mL) and an MBC [5] of 32 µM (≈ 40.8 µg/mL). For the same compound, the MIC [5] was 32 µM (≈ 40.8 µg/mL), the MBC [6] was 32 µM (≈ 40.8 µg/mL) and the MIC [6] was 16 µM (≈ 20.4 µg/mL). For the same compound, the MBEC50 [7] was 32 µM, the MBEC90 [7] was 128 µM and the MBIC50 [7] was 8 µM. The MBIC90 [7] was 32 µM, the MBEC50 [8] was 32/32 µM and the MBEC90 [8] was 256 µM. For the same compound, the MBIC50 [8] was 32/32 µM, the MBIC90 [8] was 64 µM and the MIC ([9]; pH 6) was 128 µM (≈ 163 µg/mL). It also gave an MIC ([9]; pH 7) of 128 µM (≈ 163 µg/mL) and an MIC ([9]; pH 8) of 64 µM (≈ 81.5 µg/mL).
For `CC(C)C[C@H](NC(=O)[C@H](C)NC(=O)[C@H](Cc1c[nH]c2ccccc12)NC(=O)[C@H](CCCCN)NC(=O)[C@H](CC(C)C)NC(=O)[C@@H](N)Cc1ccccc1)C(=O)N[C@@H](CCCCN)C(=O)N[C@@H](Cc1c[nH]c2ccccc12)C(=O)N[C@@H](C)C(=O)N[C@@H](C)C(=O)N[C@@H](CCCCN)C(N)=O` [OSe] (H-FLKWALKWAAK-NH2), the MBC [1] was 4 µM (≈ 5.44 µg/mL), the MIC [1] was 4 µM (≈ 5.44 µg/mL) and the MBC [2] was 16 µM (≈ 21.8 µg/mL). It also gave an MIC [2] of 16 µM (≈ 21.8 µg/mL), an MBC [3] of 16 µM (≈ 21.8 µg/mL) and an MIC [3] of 16 µM (≈ 21.8 µg/mL). The MBC [4] was 16 µM (≈ 21.8 µg/mL), the MIC [4] was 16 µM (≈ 21.8 µg/mL) and the MBC [5] was 8 µM (≈ 10.9 µg/mL). It also gave an MIC [5] of 8 µM (≈ 10.9 µg/mL), an MBC [6] of 4 µM (≈ 5.44 µg/mL) and an MIC [6] of 4 µM (≈ 5.44 µg/mL). For the same compound, the “HC50 (concentration causing 50% haemolysis of the red blood cells)” value [10] was 64.03 µM, the MBEC50 [7] was 32 µM and the MBEC90 [7] was 32 µM. For the same compound, the MBIC50 [7] was 4 µM, the MBIC90 [7] was 8 µM and the MBEC50 [8] was 32 µM. It also gave an MBEC90 [8] of 32 µM, an MBIC50 [8] of 8 µM and an MBIC90 [8] of 16 µM. For the same compound, the MIC ([9]; pH 6) was 32 µM (≈ 43.5 µg/mL), the MIC ([9]; pH 7) was 64 µM (≈ 87.1 µg/mL) and the MIC ([9]; pH 8) was 32 µM (≈ 43.5 µg/mL).
`CC(C)C[C@H](NC(=O)[C@H](C)NC(=O)[C@H](Cc1c[nH]c2ccccc12)NC(=O)[C@H](CCCCN)NC(=O)[C@@H]1CCCN1C(=O)[C@H](CC(C)C)NC(=O)[C@@H](N)Cc1ccccc1)C(=O)N[C@@H](CCCCN)C(=O)N[C@@H](Cc1c[nH]c2ccccc12)C(=O)N[C@@H](C)C(=O)N[C@@H](C)C(=O)N[C@@H](CCCCN)C(N)=O` [OSf] (H-FLPKWALKWAAK-NH2; N-terminus assumed) showed an MBC [1] of 16 µM (≈ 23.3 µg/mL), an MIC [1] of 8 µM (≈ 11.7 µg/mL) and an MBC [2] of 64 µM (≈ 93.3 µg/mL). It also gave an MIC [2] of 64 µM (≈ 93.3 µg/mL), an MBC [3] of 16 µM (≈ 23.3 µg/mL) and an MIC [3] of 8 µM (≈ 11.7 µg/mL). It also gave an MBC [4] of 64 µM (≈ 93.3 µg/mL), an MIC [4] of 32 µM (≈ 46.7 µg/mL) and an MBC [5] of 64 µM (≈ 93.3 µg/mL). The MIC [5] was 16 µM (≈ 23.3 µg/mL), the MBC [6] was 16 µM (≈ 23.3 µg/mL) and the MIC [6] was 8 µM (≈ 11.7 µg/mL). The “HC50 (concentration causing 50% haemolysis of the red blood cells)” value [10] was 328.3 µM, the MBEC50 [7] was 32 µM and the MBEC90 [7] was 128 µM. It also gave an MBIC50 [7] of 8 µM, an MBIC90 [7] of 32 µM and an MBEC50 [8] of 32 µM. It also gave an MBEC90 [8] of 128 µM, an MBIC50 [8] of 16 µM and an MBIC90 [8] of 64 µM. For the same compound, the MIC ([9]; pH 6) was 128 µM (≈ 187 µg/mL), the MIC ([9]; pH 7) was 256 µM (≈ 373 µg/mL) and the MIC ([9]; pH 8) was 64 µM (≈ 93.3 µg/mL).

Reference: paper PMC7472354, “Enhanced Antimicrobial Activity of N-Terminal Derivatives of a Novel Brevinin-1 Peptide from The Skin Secretion of Odorrana schmackeri” (Toxins, 2020)
